Source: PubChem BioAssay (NCI)
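Method: 48-hour compound exposure of cells in 96-well plates, five concentrations, linear interpolation of endpoints. GI50: concentration for 50% inhibition of growth. TGI: total growth inhibition.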

Legend:
Test in all cases: NCI tumour cell line growth inhibition, 48 h
[1] = test system: 786-0 renal
[2] = test system: A498 renal
[3] = test system: A549 NSCLC
[4] = test system: ACHN renal
[5] = test system: BT-549 breast
[6] = test system: CAKI-1 renal
[7] = test system: CCRF-CEM leukemia
[8] = test system: DU-145 prostate
[9] = test system: EKVX NSCLC
[10] = test system: HCT-116 colon
[11] = test system: HL-60(TB) leukemia
[12] = test system: HOP-62 NSCLC
[13] = test system: HOP-92 NSCLC
[14] = test system: HS 578T breast
[15] = test system: IGROV1 ovarian
[16] = test system: K-562 leukemia
[17] = test system: KM12 colon
[18] = test system: LOX IMVI melanoma
[19] = test system: M14 melanoma
[20] = test system: MALME-3M melanoma
[21] = test system: MCF7 breast
[22] = test system: MDA-MB-231 breast
[23] = test system: MDA-MB-435
[24] = test system: MOLT-4 leukemia
[25] = test system: NCI-H226 lung
[26] = test system: NCI-H23 lung
[27] = test system: NCI-H522 lung
[28] = test system: NCI/ADR-RES ovarian
[29] = test system: OVCAR-3 ovarian
[30] = test system: OVCAR-4 ovarian
[31] = test system: OVCAR-5 ovarian
[32] = test system: OVCAR-8 ovarian
[33] = test system: PC-3 prostate
[34] = test system: RPMI-8226 leukemia
[35] = test system: RXF 393 renal
[36] = test system: SF-268 CNS
[37] = test system: SF-295 CNS
[38] = test system: SF-539 CNS
[39] = test system: SK-MEL-28 melanoma
[40] = test system: SK-MEL-5 melanoma
[41] = test system: SK-OV-3 ovarian
[42] = test system: SN12C renal
[43] = test system: SNB-19 CNS
[44] = test system: SNB-75 CNS
[45] = test system: SR leukemia
[46] = test system: SW-620 colon
[47] = test system: T-47D breast
[48] = test system: TK-10 renal
[49] = test system: U251 CNS
[50] = test system: UACC-257 melanoma
[51] = test system: UACC-62 melanoma
[52] = test system: UO-31 renal

CSc1nc(-c2cc3ccccc3o2)cc(-c2ccc(Cl)cc2)c1C#N showed a GI50 [1] of 7.36 µM, a TGI [1] of 76.8 µM and a GI50 [2] of 27 µM. The TGI [2] was over 100 µM, the GI50 [3] was 4.48 µM and the TGI [3] was over 100 µM. It also gave a GI50 [4] of 3.03 µM, a TGI [4] of 67.7 µM and a GI50 [5] of 23.8 µM. The TGI [5] was 75.7 µM, the GI50 [6] was 5.28 µM and the TGI [6] was over 73.4 µM. The GI50 [7] was over 100 µM, the TGI [7] was over 100 µM and the GI50 [8] was 3.87 µM. The TGI [8] was over 100 µM, the GI50 [9] was 0.918 µM and the TGI [9] was over 100 µM. For the same compound, the GI50 [10] was 5.11 µM, the TGI [10] was over 100 µM and the GI50 [11] was over 100 µM. The TGI [11] was over 100 µM, the GI50 [12] was 12.7 µM and the TGI [12] was over 79.6 µM. For the same compound, the GI50 [13] was 3.4 µM, the TGI [13] was 15.2 µM and the GI50 [14] was 22.2 µM. It also gave a TGI [14] of over 64.3 µM, a GI50 [15] of 0.706 µM and a TGI [15] of 13.4 µM. It also gave a GI50 [16] of over 100 µM, a TGI [16] of over 100 µM and a GI50 [17] of over 100 µM. The TGI [17] was over 100 µM, the GI50 [18] was 9.53 µM and the TGI [18] was over 100 µM. It also gave a GI50 [19] of 45.5 µM, a TGI [19] of over 100 µM and a GI50 [20] of 20.5 µM. It also gave a TGI [20] of over 100 µM, a GI50 [21] of 0.352 µM and a TGI [21] of over 100 µM. For the same compound, the GI50 [22] was 3.58 µM, the TGI [22] was 50 µM and the GI50 [23] was over 100 µM. The TGI [23] was over 100 µM, the GI50 [24] was over 85 µM and the TGI [24] was over 100 µM. It also gave a GI50 [25] of 6.28 µM, a TGI [25] of over 100 µM and a GI50 [26] of 9.24 µM. The TGI [26] was over 100 µM, the GI50 [27] was 8.67 µM and the TGI [27] was over 100 µM. It also gave a GI50 [28] of 44.9 µM, a TGI [28] of over 100 µM and a GI50 [29] of 2.58 µM. The TGI [29] was over 24.2 µM, the GI50 [30] was over 100 µM and the TGI [30] was over 100 µM. The GI50 [31] was over 84.6 µM, the TGI [31] was over 100 µM and the GI50 [32] was 3.57 µM. The TGI [32] was over 100 µM, the GI50 [33] was 8.82 µM and the TGI [33] was over 100 µM. For the same compound, the GI50 [34] was over 67.6 µM, the TGI [34] was over 100 µM and the GI50 [35] was 3.7 µM. The TGI [35] was 20.1 µM, the GI50 [36] was 18 µM and the TGI [36] was over 80.1 µM. The GI50 [37] was 6.17 µM, the TGI [37] was 37.8 µM and the GI50 [38] was 2.99 µM. For the same compound, the TGI [38] was 14.6 µM, the GI50 [39] was over 100 µM and the TGI [39] was over 100 µM. For the same compound, the GI50 [40] was over 100 µM, the TGI [40] was over 100 µM and the GI50 [41] was 5.29 µM. For the same compound, the TGI [41] was 56.8 µM, the GI50 [42] was 26.9 µM and the TGI [42] was over 100 µM. For the same compound, the GI50 [43] was 19.7 µM, the TGI [43] was over 76.5 µM and the GI50 [44] was 5.56 µM. It also gave a TGI [44] of 26.6 µM, a GI50 [45] of 28.6 µM and a TGI [45] of over 100 µM. The GI50 [46] was over 100 µM, the TGI [46] was over 100 µM and the GI50 [47] was 0.93 µM. The TGI [47] was over 100 µM, the GI50 [48] was 8.07 µM and the TGI [48] was 31.8 µM. For the same compound, the GI50 [49] was 3.76 µM, the TGI [49] was 28.4 µM and the GI50 [50] was over 100 µM. It also gave a TGI [50] of over 100 µM, a GI50 [51] of 5.03 µM and a TGI [51] of over 49.8 µM. The GI50 [52] was 1.73 µM and the TGI [52] was over 100 µM.
